Measurements published in PubChem BioAssay (NCI).
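Here, GI50 denotes the concentration required for 50% inhibition of growth. Definition used: TGI = concentration required for complete inhibition of growth.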

Assays:
Assay in all cases: inhibition of tumour cell growth, NCI panel, 384-well format
[1] = tested on: SNB-75 CNS
[2] = tested on: KM12 colon
[3] = tested on: K-562 leukemia
[4] = tested on: OVCAR-4 ovarian
[5] = tested on: IGROV1 ovarian
[6] = tested on: RXF 393 renal
[7] = tested on: NCI-H460 NSCLC
[8] = tested on: EKVX NSCLC
[9] = tested on: NCI-H322M lung
[10] = tested on: HOP-62 NSCLC
[11] = tested on: NCI/ADR-RES ovarian
[12] = tested on: UACC-257 melanoma
[13] = tested on: HL-60(TB) leukemia
[14] = tested on: MOLT-4 leukemia
[15] = tested on: NCI-H226 lung
[16] = tested on: SNB-19 CNS
[17] = tested on: T-47D breast
[18] = tested on: SF-539 CNS
[19] = tested on: SK-MEL-5 melanoma
[20] = tested on: HOP-92 NSCLC
[21] = tested on: HT29 colon
[22] = tested on: TK-10 renal
[23] = tested on: LOX IMVI melanoma
[24] = tested on: RPMI-8226 leukemia
[25] = tested on: UACC-62 melanoma
[26] = tested on: SF-268 CNS
[27] = tested on: MALME-3M melanoma
[28] = tested on: SK-OV-3 ovarian
[29] = tested on: DU-145 prostate
[30] = tested on: PC-3 prostate
[31] = tested on: A549 NSCLC
[32] = tested on: SR leukemia
[33] = tested on: OVCAR-8 ovarian
[34] = tested on: MDA-MB-468 breast
[35] = tested on: HCT-116 colon
[36] = tested on: U251 glioblastoma
[37] = tested on: 786-0 renal
[38] = tested on: BT-549 breast
[39] = tested on: ACHN renal
[40] = tested on: HCT-15 colon
[41] = tested on: HCC-2998 colon
[42] = tested on: HS 578T breast
[43] = tested on: SF-295 CNS
[44] = tested on: SW-620 colon
[45] = tested on: M14 melanoma
[46] = tested on: CAKI-1 renal
[47] = tested on: COLO 205 colon
[48] = tested on: NCI-H522 lung
[49] = tested on: SN12C renal
[50] = tested on: SK-MEL-28 melanoma
[51] = tested on: NCI-H23 lung
[52] = tested on: MCF7 breast
[53] = tested on: CCRF-CEM leukemia
[54] = tested on: MDA-MB-435 melanoma
[55] = tested on: UO-31 renal
[56] = tested on: OVCAR-3 ovarian

Compound `COC1CCC(N2C(=O)CNc3ncc(-c4ccc(C(C)(C)O)nc4)nc32)CC1` (configuration not stated) has a GI50 [1] of 256 nM, a TGI [1] of 22900 nM and a GI50 [2] of 474 nM. For the same compound, the TGI [2] was 33900 nM, the GI50 [3] was 517 nM and the TGI [3] was 72000 nM. The GI50 [4] was 901 nM, the TGI [4] was 8950 nM and the GI50 [5] was 137 nM. It also gave a TGI [5] of 12800 nM, a GI50 [6] of 438 nM and a TGI [6] of 92400 nM. It also gave a GI50 [7] of 65.9 nM, a TGI [7] of 16300 nM and a GI50 [8] of 530 nM. For the same compound, the TGI [8] was 31200 nM, the GI50 [9] was 280 nM and the TGI [9] was 52900 nM. The GI50 [10] was 672 nM, the TGI [10] was over 100000 nM and the GI50 [11] was 2360 nM. It also gave a TGI [11] of 32300 nM, a GI50 [12] of 3010 nM and a TGI [12] of over 100000 nM. The GI50 [13] was 2470 nM, the TGI [13] was 17100 nM and the GI50 [14] was 233 nM. The TGI [14] was 2110 nM, the GI50 [15] was 326 nM and the TGI [15] was 7120 nM. It also gave a GI50 [16] of 5340 nM, a TGI [16] of over 100000 nM and a GI50 [17] of 74.3 nM. The TGI [17] was over 100000 nM, the GI50 [18] was 1270 nM and the TGI [18] was 22300 nM. For the same compound, the GI50 [19] was 200 nM, the TGI [19] was 2620 nM and the GI50 [20] was 454 nM. For the same compound, the TGI [20] was over 100000 nM, the GI50 [21] was 697 nM and the TGI [21] was over 100000 nM. The GI50 [22] was 504 nM, the TGI [22] was 17200 nM and the GI50 [23] was 587 nM. The TGI [23] was 12900 nM, the GI50 [24] was 25 nM and the TGI [24] was 110 nM. It also gave a GI50 [25] of 237 nM, a TGI [25] of 8490 nM and a GI50 [26] of 2180 nM. It also gave a TGI [26] of 20000 nM, a GI50 [27] of 68.9 nM and a TGI [27] of 587 nM. It also gave a GI50 [28] of 280 nM, a TGI [28] of 17100 nM and a GI50 [29] of 660 nM. For the same compound, the TGI [29] was 20200 nM, the GI50 [30] was 157 nM and the TGI [30] was 14600 nM. The GI50 [31] was 358 nM, the TGI [31] was over 100000 nM and the GI50 [32] was 16 nM. The TGI [32] was 53.3 nM, the GI50 [33] was 693 nM and the TGI [33] was over 100000 nM. The GI50 [34] was 344 nM, the TGI [34] was 6980 nM and the GI50 [35] was 690 nM. It also gave a TGI [35] of 21800 nM, a GI50 [36] of 1900 nM and a TGI [36] of 41200 nM. It also gave a GI50 [37] of 911 nM, a TGI [37] of over 100000 nM and a GI50 [38] of 474 nM. It also gave a TGI [38] of 7350 nM, a GI50 [39] of 479 nM and a TGI [39] of over 100000 nM. For the same compound, the GI50 [40] was 448 nM, the TGI [40] was 44700 nM and the GI50 [41] was 2540 nM. For the same compound, the TGI [41] was 34800 nM, the GI50 [42] was 173 nM and the TGI [42] was 523 nM. It also gave a GI50 [43] of 184 nM, a TGI [43] of 1120 nM and a GI50 [44] of 2580 nM. The TGI [44] was over 100000 nM, the GI50 [45] was 296 nM and the TGI [45] was over 100000 nM. It also gave a GI50 [46] of 215 nM, a TGI [46] of 3620 nM and a GI50 [47] of 323 nM. The TGI [47] was over 100000 nM, the GI50 [48] was 200 nM and the TGI [48] was 21400 nM. The GI50 [49] was 275 nM, the TGI [49] was 68400 nM and the GI50 [50] was 234 nM. It also gave a TGI [50] of over 100000 nM, a GI50 [51] of 1460 nM and a TGI [51] of over 100000 nM. It also gave a GI50 [52] of 68.6 nM, a TGI [52] of over 100000 nM and a GI50 [53] of 261 nM. It also gave a TGI [53] of 10600 nM, a GI50 [54] of 515 nM and a TGI [54] of 24200 nM. The GI50 [55] was 358 nM, the TGI [55] was over 100000 nM and the GI50 [56] was 386 nM. The TGI [56] was 22800 nM.
